This note sets out measurements from patent US20150258202A1, “ANTHOCYANIDIN COMPLEX FOR THE TREATMENT OF MULTIPLE MYELOMA” (priority 2012, published 2015).

For data set [1], the system named is mouse myeloma cell line MOPC-315. The experiment in a line: FACS analysis of dead cells stained with propidium iodide. It is filed as cell-based. The following applies: summary of BLI measurement and FACS analysis. The text has this:
1. Test Line and Experimental Setup • In the in vitro experiments, the effect of the delphinidin+sulfobutyl ether β-cyclodextrin complex (delphinidin+SBEBCD below) and delphinidin on the mouse myeloma cell line MOPC-315 (ATTC catalog no. TIB-23) was investigated by BLI (=bioluminescence imaging) measurement and FACS (fluorescence activated cell sorting) analysis described below. The methods used (BLI measurement and FACS analysis) are known to those skilled in the art from patent and technical literature, for example, from the FACS-based patent DE 1815352 C1.

A short description of data set [2]: Solubility of delphinidin chloride in aqueous cyclodextrin solutions (complexing). It counts as physicochemical. The following applies: pure water, cyclodextrin concentration 0; stirred 30° C. 20 h in the dark, filtered 0.22 μm.
Protocol: A reversed-phase HPLC method was used to determine the delphinidin chloride content in the delphinidin-containing compositions.
In this example, the complexing of delphinidin by various cyclodextrins and the solubility of the complex in aqueous solution are investigated.
Neutral aqueous solutions were prepared comprising 10% by weight of the respective cyclodextrin.
Glass flasks were filled with 5 ml each of aqueous cyclodextrin solution and pure water. An excess of delphinidin chloride was then added.
The suspensions were stirred at 30° C. for 20 h in the dark. The suspension was then filtered through a membrane filter of 0.22 μm pore size.
Data set [3] can be described thus: Stability trials in aqueous solution (0.9% NaCl, 37° C., delphinidin content by HPLC). To be noted: 0.9% NaCl solution, dark. It counts as physicochemical. The procedure:
To determine the delphinidin chloride content in the delphinidin-containing solutions, a reversed-phase HPLC method was used similar to the one already described above. The following reagents were used in this case:
The solutions were prepared at room temperature and subsequently stored in the dark at 37° C. in closed vials.
The delphinidin content was determined after 1, 2, 3 and 4 h. The table below gives the content determined as a percentage of the starting concentration stated above.
The determination of the delphinidin content in the samples was calculated with the aid of the Agilent ChemStation software using the calibration with the external standard described.

As to `Oc1cc(O)c2cc(O)c(-c3cc(O)c(O)c(O)c3)[o+]c2c1.[Cl-]` [Delphinidin chloride], the “Killing of myeloma cells in vitro” value in data set [1] is “kill human myeloma cells in vitro”. The “Dose dependence of cell killing” value in data set [1] (higher doses) is “virtually all cells are killed at higher doses”. Also, the “Delphinidin chloride (solubility achievable)” value in data set [2] is 0.07 mg/mL. For the same compound, the “Delphinidin content as a percentage of the starting concentration” value in data set [3] (0 h) was 100%; in data set [3] (1 h), 8.3%; in data set [3] (2 h) it was 6.5%; in data set [3] (3 h) it was 5.6%; in data set [3] (4 h), 5.1%.
